In patent publication US11214594B2, “Antimicrobial peptide having synergistic antibacterial effect with antibiotics on multidrug resistant bacteria, and use thereof” (priority 2016, dated 2022):
Read-outs that look alike come from different tables or passages of the source. Where a SMILES comes first, the peptide text is derived from it. [ ]: non-standard residue; d: D form.

Experiments:
MDRAB 12035 [1] = experiment: MIC of antibiotic during combined treatment with antimicrobial peptide; assay type: cell-based, Acinetobacter baumannii
Procedure: Specifically, the strains described in [Table 2] were prepared and diluted with an MH medium such that the number of bacteria was 2×10^6 colony-forming units (CFUs) per 1 ml, 100 μl of the diluted strains was each aliquoted into a 96-well microtiter plate, and then 50 μl of a peptide solution diluted with the MH medium from the MIC value (solution diluted stepwise at 2: 1) was added to each well. Thereafter, the MIC value of each mixed solution was determined by diluting the antibiotic solution with the MH medium, adding 50 μl of the diluted solution to each well, and performing an experiment even under a reversed condition.

E. coli = assay type: cell-based, Escherichia coli; conditions: E. coli
Summary of the method: (§1)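 Broth microdilution in MH medium; strains were diluted to 2×10^6 CFU per ml before plating. Peptide was serially diluted stepwise at 2:1 starting from its MIC, and MH-diluted antibiotic was then added to determine MIC. The reversed arrangement was also tested.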

MDREC 1229 = assay type: cell-based, Escherichia coli
Summary of the method: as §1

A. baumannii = experiment: MIC of antimicrobial peptide during combined treatment with antibiotic; assay type: cell-based, Acinetobacter baumannii
Summary of the method: as §1

MDRAB 12035 [2] = experiment: as above; assay type: cell-based, Acinetobacter baumannii
Summary of the method: as §1

[3] = peptide treatment concentration 6 μg/ml
[4] = peptide treatment concentration 8 μg/ml
[5] = peptide treatment concentration 16 μg/ml
[6] = peptide treatment concentration 32 μg/ml
[7] = peptide treatment concentration 64 μg/ml
[8] = linezolid 64 μg/ml (Conc./MIC 1/8)
[9] = linezolid 512 μg/ml (Conc./MIC 1)
[10] = vancomycin 512 μg/ml (Conc./MIC 1/2)
[11] = vancomycin 1024 μg/ml (Conc./MIC 1)
[12] = erythromycin 4 μg/ml (Conc./MIC 1/8)
[13] = erythromycin 8 μg/ml (Conc./MIC 1/4)
[14] = erythromycin 16 μg/ml (Conc./MIC 1/2)
[15] = erythromycin 32 μg/ml (Conc./MIC 1)

For `CC[C@H](C)[C@H](NC(=O)[C@H](CCCCN)NC(=O)[C@H](Cc1c[nH]c2ccccc12)NC(=O)[C@@H](N)CCCNC(=N)N)C(=O)N[C@@H](Cc1ccccc1)C(=O)N[C@@H](CCCCN)C(=O)N[C@@H](CCCCN)C(=O)N[C@H](C(=O)N[C@H](CC(C)C)C(=O)N[C@@H](CCCCN)C(=O)N[C@@H](CC(C)C)C(=O)N[C@@H](CC(C)C)C(=O)N[C@@H](Cc1c[nH]cn1)C(=O)N[C@@H](CCCCN)C(=O)N[C@@H](Cc1ccccc1)C(=O)N[C@@H](CCCCN)C(=O)N[C@@H](CCCCN)C(=O)N[C@@H](Cc1ccccc1)C(N)=O)[C@@H](C)CC` [PapMA-21, RWK IFK KIl KLL HKF KKF-NH2] (H-RWKIFKKI[dL]KLLHKFKKF-NH2; N-terminus assumed), the “Erythromycin MIC during combined treatment with peptide” value (MDRAB 12035 [1]; [3]) was 4 µg/mL, the “Linezolid MIC during combined treatment with peptide” value (MDRAB 12035 [1]; [3]) was 32 µg/mL and the “Vancomycin MIC during combined treatment with peptide” value (MDRAB 12035 [1]; [3]) was 64 µg/mL. The “Erythromycin MIC during combined treatment with peptide” value (MDRAB 12035 [1]; [4]) was 1 µg/mL, the “Linezolid MIC during combined treatment with peptide” value (MDRAB 12035 [1]; [4]) was 16 µg/mL and the “Vancomycin MIC during combined treatment with peptide” value (MDRAB 12035 [1]; [4]) was 32 µg/mL. For the same compound, the “Erythromycin MIC during combined treatment with peptide” value (MDRAB 12035 [1]; [5]) was 0.5 µg/mL, the “Linezolid MIC during combined treatment with peptide” value (MDRAB 12035 [1]; [5]) was 8 µg/mL and the “Vancomycin MIC during combined treatment with peptide” value (MDRAB 12035 [1]; [5]) was 16 µg/mL. For the same compound, the “Erythromycin MIC during combined treatment with peptide” value (MDRAB 12035 [1]; [6]) was 0 µg/mL, the “Linezolid MIC during combined treatment with peptide” value (MDRAB 12035 [1]; [6]) was 0 µg/mL and the “Vancomycin MIC during combined treatment with peptide” value (MDRAB 12035 [1]; [6]) was 0 µg/mL. For the same compound, the “Erythromycin MIC during combined treatment with peptide” value (MDRAB 12035 [1]; [7]) was 0 µg/mL, the “Linezolid MIC during combined treatment with peptide” value (MDRAB 12035 [1]; [7]) was 0 µg/mL and the “Vancomycin MIC during combined treatment with peptide” value (MDRAB 12035 [1]; [7]) was 0 µg/mL. For the same compound, the “Peptide MIC” value (E. coli; with Erythromycin 16 μg/ml (Conc./MIC 1/8)) was 4 µg/mL, the “Peptide MIC” value (E. coli; with Erythromycin 32 μg/ml (Conc./MIC 1/4)) was 2 µg/mL and the “Peptide MIC” value (E. coli; with Erythromycin 64 μg/ml (Conc./MIC 1/2)) was 1 µg/mL. For the same compound, the “Peptide MIC” value (E. coli; with Erythromycin […] (Conc./MIC 1)) was 0 µg/mL, the “Peptide MIC” value (E. coli; with Linezolid 32 μg/ml (Conc./MIC 1/8)) was 8 µg/mL and the “Peptide MIC” value (E. coli; with Linezolid 64 μg/ml (Conc./MIC 1/4)) was 4 µg/mL. For the same compound, the “Peptide MIC” value (E. coli; with Linezolid […] (Conc./MIC 1)) was 0 µg/mL, the “Peptide MIC” value (E. coli; with Linezolid […] (Conc./MIC 1/2)) was 2 µg/mL and the “Peptide MIC” value (E. coli; with Vancomycin 512 μg/ml (Conc./MIC 1/2)) was 2 µg/mL. For the same compound, the “Peptide MIC” value (E. coli; with Vancomycin 1024 μg/ml (Conc./MIC 1)) was 0 µg/mL, the “Peptide MIC” value (E. coli; with Vancomycin […] (Conc./MIC 1/4)) was 4 µg/mL and the “Peptide MIC” value (E. coli; with Vancomycin […] (Conc./MIC 1/8)) was 8 µg/mL. For the same compound, the “Peptide MIC during treatment with antibiotic” value (MDREC 1229; erythromycin 32 μg/ml (Conc./MIC 1/8)) was 2 µg/mL, the “Peptide MIC during treatment with antibiotic” value (MDREC 1229; erythromycin 64 μg/ml (Conc./MIC 1/4)) was 2 µg/mL and the “Peptide MIC during treatment with antibiotic” value (MDREC 1229; erythromycin […] (Conc./MIC 1)) was 0 µg/mL. For the same compound, the “Peptide MIC during treatment with antibiotic” value (MDREC 1229; erythromycin […] (Conc./MIC 1/2)) was 1 µg/mL, the “Peptide MIC during treatment with antibiotic” value (MDREC 1229; [8]) was 8 µg/mL and the “Peptide MIC during treatment with antibiotic” value (MDREC 1229; [9]) was 0 µg/mL. For the same compound, the “Peptide MIC during treatment with antibiotic” value (MDREC 1229; linezolid […] (Conc./MIC 1/2)) was 1 µg/mL, the “Peptide MIC during treatment with antibiotic” value (MDREC 1229; linezolid […] (Conc./MIC 1/4)) was 4 µg/mL and the “Peptide MIC during treatment with antibiotic” value (MDREC 1229; [10]) was 2 µg/mL. For the same compound, the “Peptide MIC during treatment with antibiotic” value (MDREC 1229; [11]) was 2 µg/mL, the “Peptide MIC during treatment with antibiotic” value (MDREC 1229; vancomycin […] (Conc./MIC 1/4)) was 4 µg/mL and the “Peptide MIC during treatment with antibiotic” value (MDREC 1229; vancomycin […] (Conc./MIC 1/8)) was 8 µg/mL. For the same compound, the “Peptide MIC during treatment with erythromycin” value (A. baumannii; [12]) was 8 µg/mL, the “Peptide MIC during treatment with erythromycin” value (A. baumannii; [13]) was 4 µg/mL and the “Peptide MIC during treatment with erythromycin” value (A. baumannii; [14]) was 2 µg/mL. The “Peptide MIC during treatment with erythromycin” value (A. baumannii; [15]) was 0 µg/mL, the “Peptide MIC during treatment with linezolid” value (A. baumannii; linezolid 32 μg/ml (Conc./MIC 1/8)) was 4 µg/mL and the “Peptide MIC during treatment with linezolid” value (A. baumannii; linezolid 64 μg/ml (Conc./MIC 1/4)) was 4 µg/mL. The “Peptide MIC during treatment with linezolid” value (A. baumannii; linezolid […] (Conc./MIC 1)) was 0 µg/mL, the “Peptide MIC during treatment with linezolid” value (A. baumannii; linezolid […] (Conc./MIC 1/2)) was 1 µg/mL and the “Peptide MIC during treatment with vancomycin” value (A. baumannii; [10]) was 0.25 µg/mL. The “Peptide MIC during treatment with vancomycin” value (A. baumannii; [11]) was 0 µg/mL, the “Peptide MIC during treatment with vancomycin” value (A. baumannii; vancomycin […] (Conc./MIC 1/4)) was 0.5 µg/mL and the “Peptide MIC during treatment with vancomycin” value (A. baumannii; vancomycin […] (Conc./MIC 1/8)) was 4 µg/mL. For the same compound, the “Peptide MIC during treatment with erythromycin” value (MDRAB 12035 [2]; [12]) was 8 µg/mL, the “Peptide MIC during treatment with erythromycin” value (MDRAB 12035 [2]; [13]) was 8 µg/mL and the “Peptide MIC during treatment with erythromycin” value (MDRAB 12035 [2]; [14]) was 4 µg/mL. The “Peptide MIC during treatment with erythromycin” value (MDRAB 12035 [2]; [15]) was 0 µg/mL, the “Peptide MIC during treatment with linezolid” value (MDRAB 12035 [2]; [8]) was 4 µg/mL and the “Peptide MIC during treatment with linezolid” value (MDRAB 12035 [2]; [9]) was 0 µg/mL. The “Peptide MIC during treatment with linezolid” value (MDRAB 12035 [2]; linezolid […] (Conc./MIC 1/2)) was 1 µg/mL, the “Peptide MIC during treatment with linezolid” value (MDRAB 12035 [2]; linezolid […] (Conc./MIC 1/4)) was 4 µg/mL and the “Peptide MIC during treatment with vancomycin” value (MDRAB 12035 [2]; [10]) was 2 µg/mL. For the same compound, the “Peptide MIC during treatment with vancomycin” value (MDRAB 12035 [2]; [11]) was 1 µg/mL, the “Peptide MIC during treatment with vancomycin” value (MDRAB 12035 [2]; vancomycin […] (Conc./MIC 1/4)) was 4 µg/mL and the “Peptide MIC during treatment with vancomycin” value (MDRAB 12035 [2]; vancomycin […] (Conc./MIC 1/8)) was 4 µg/mL.
